Measurements as given in US20250084084A1, “Crystalline form of (2R)-2-(5-fluoro-2-methoxypyridin-4-yl)-1-[(2S)-7-methyl-6-(pyrimidin-2-yl)-3,4-dihydro-1H-spiro[1,8-naphthyridine-2,3-pyrrolidin]-1-yl]propan-1-one” (Pfizer Inc., priority 2020, published 2025).
Where two headings read alike, the source gives them in different places.

Target: α-melanocyte-stimulating hormone receptor (hMC4R) (Homo sapiens (Human), UniProt P32245)
Experiment: In vitro binding affinity assay using hMC4R (radioligand competition binding, [125I]-(Nle4, D-Phe7)-α-MSH)
Settings: geometric mean
Method in brief: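 Membranes from CHO cells stably expressing hMC4R (2 μg/well) incubated 2 h RT with [125I]-NDP-α-MSH and compound (300 nM-0.01 nM, 1% DMSO); 2 μM α-MSH defined nonspecific binding. Filtration and scintillation counting; Ki from IC50 via Cheng-Prusoff.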

[1] = read-out: Ki (nM) geometric mean

Sequence of α-melanocyte-stimulating hormone receptor (hMC4R) (P32245 whole entry): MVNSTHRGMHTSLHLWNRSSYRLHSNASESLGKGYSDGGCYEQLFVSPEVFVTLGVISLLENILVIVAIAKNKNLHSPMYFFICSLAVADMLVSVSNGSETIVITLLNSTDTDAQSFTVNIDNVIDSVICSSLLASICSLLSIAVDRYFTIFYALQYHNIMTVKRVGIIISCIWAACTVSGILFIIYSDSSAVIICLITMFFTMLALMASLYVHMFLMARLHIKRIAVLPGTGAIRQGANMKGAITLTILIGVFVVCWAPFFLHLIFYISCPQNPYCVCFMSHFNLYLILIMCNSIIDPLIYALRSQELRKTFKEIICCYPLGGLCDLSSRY

Q: How did the Ki (read-out: Ki (nM) geometric) turn out when COc1cc([C@@H](C)C(=O)N2CC[C@@]3(CCc4cc(-c5ccc(-c6noc(C)n6)cc5)c(C)nc4N3)C2)c(F)cn1 [Example 175, (2R)-2-(5-fluoro-2-methoxypyridin-4-yl)-1-{(2S)-7-methyl-6-[4-(5-methyl-1,2,4-oxadiazol-3-yl)phenyl]-3,4-dihydro-1H-spiro[1,8-naphthyridine-2,3′-pyrrolidin]-1′-yl}propan-1-one] was run?
A: Its Ki is 45 nM.

Q: For COc1cc([C@@H](C)C(=O)N2CC[C@@]3(CCc4cc(-c5cnc(C(F)(F)F)nc5)c(C)nc4N3)C2)c(F)cn1 [Example 170, (2R)-2-(5-fluoro-2-methoxypyridin-4-yl)-1-{(2S)-7-methyl-6-[2-(trifluoromethyl)pyrimidin-5-yl]-3,4-dihydro-1H-spiro[1,8-naphthyridine-2,3′-pyrrolidin]-1′-yl}propan-1-one], which Ki (read-out: Ki (nM) geometric) is on record?
A: The Ki was 43 nM.

Q: How did the Ki (read-out: Ki (nM) geometric) turn out when COc1cc([C@@H](C)C(=O)N2CC[C@@]3(CCc4cc(-c5ccnc(N6CCOCC6)n5)c(C)nc4N3)C2)c(F)cn1 [Example 196, (2R)-2-(5-fluoro-2-methoxypyridin-4-yl)-1-{(2S)-7-methyl-6-[2-(morpholin-4-yl)pyrimidin-4-yl]-3,4-dihydro-1H-spiro[1,8-naphthyridine-2,3′-pyrrolidin]-1′-yl}propan-1-one] was run?
A: The Ki was 8.1 nM.

Q: Which Ki (read-out: Ki (nM) geometric) does the source give for COc1cc([C@@H](C)C(=O)N2CC[C@@]3(CCc4cc(-c5cnn6cccnc56)c(C)nc4N3)C2)c(F)cn1 [Example 154, (2R)-2-(5-fluoro-2-methoxypyridin-4-yl)-1-[(2S)-7-methyl-6-(pyrazolo[1,5-a]pyrimidin-3-yl)-3,4-dihydro-1H-spiro[1,8-naphthyridine-2,3′-pyrrolidin]-1′-yl]propan-1-one] here?
A: The Ki was 0.72 nM.

Q: For COc1cc([C@@H](C)C(=O)N2CC[C@@]3(CCc4cc(-c5cnn(C)n5)c(C)nc4N3)C2)c(F)cn1 [Example 118, (2R)-2-(5-fluoro-2-methoxypyridin-4-yl)-1-[(2S)-7-methyl-6-(2-methyl-2H-1,2,3-triazol-4-yl)-3,4-dihydro-1H-spiro[1,8-naphthyridine-2,3′-pyrrolidin]-1′-yl]propan-1-one], which Ki (read-out: Ki (nM) geometric) is on record?
A: Its Ki is 0.83 nM.

Q: Which Ki (read-out: Ki (nM) geometric) does the source give for COc1cc([C@@H](C)C(=O)N2CC[C@@]3(CCc4cc(-c5nc(C(C)(C)C)cs5)c(C)nc4N3)C2)c(F)cn1 [Example 157, (2R)-1-[(2S)-6-(4-tert-butyl-1,3-thiazol-2-yl)-7-methyl-3,4-dihydro-1H-spiro[1,8-naphthyridine-2,3′-pyrrolidin]-1′-yl]-2-(5-fluoro-2-methoxypyridin-4-yl)propan-1-one] here?
A: The Ki was 15 nM.

Q: With COc1cc([C@H](C)C(=O)N2CC[C@@]3(CCc4cc(-c5ncccn5)c(C)nc4N3)C2)c(F)cn1 [Example 28, (2S)-2-(5-fluoro-2-methoxypyridin-4-yl)-1-[(2S)-7-methyl-6-(pyrimidin-2-yl)-3,4-dihydro-1H-spiro[1,8-naphthyridine-2,3′-pyrrolidin]-1′-yl]propan-1-one] as the compound, how does the Ki [1] read?
A: The Ki was 160 nM.

Q: How did the Ki [1] turn out when COc1cc([C@@H](C)C(=O)N2CCC3(CCc4cc(-c5coc(C)n5)c(C)nc4N3)C2)c(F)cn1 (mixture of isomers) [Example 33, (2R)-2-(5-fluoro-2-methoxypyridin-4-yl)-1-[7-methyl-6-(2-methyl-1,3-oxazol-4-yl)-3,4-dihydro-1H-spiro[1,8-naphthyridine-2,3′-pyrrolidin]-1′-yl]propan-1-one] was run?
A: Its Ki is 2.6 nM.

Q: How did the Ki (read-out: Ki (nM) geometric) turn out when COc1cc([C@@H](C)C(=O)N2CC[C@@]3(CCc4cc(-c5cccc(C(F)(F)F)n5)c(C)nc4N3)C2)c(F)cn1 [Example 178, (2R)-2-(5-fluoro-2-methoxypyridin-4-yl)-1-{(2S)-7-methyl-6-[6-(trifluoromethyl)pyridin-2-yl]-3,4-dihydro-1H-spiro[1,8-naphthyridine-2,3′-pyrrolidin]-1′-yl}propan-1-one] was run?
A: Its Ki is 4.7 nM.

Q: Which Ki (read-out: Ki (nM) geometric) does the source give for COc1cc([C@@H](C)C(=O)N2CC[C@@]3(CCc4cc(-c5nc(C(F)F)n(C6CC6)n5)c(C)nc4N3)C2)c(F)cn1 [Example 189, (2R)-1-{(2S)-6-[1-cyclopropyl-5-(difluoromethyl)-1H-1,2,4-triazol-3-yl]-7-methyl-3,4-dihydro-1H-spiro[1,8-naphthyridine-2,3′-pyrrolidin]-1′-yl}-2-(5-fluoro-2-methoxypyridin-4-yl)propan-1-one] here?
A: Its Ki is 1.3 nM.

Q: COc1cc(C(C)C(=O)N2CC[C@@]3(CCc4cc(-c5ncccn5)c(C)nc4N3)C2)cc(OC(F)F)n1 (single isomer, unassigned) [Example 192] was tested. Which Ki (read-out: Ki (nM) geometric) did it give?
A: The Ki was 0.27 nM.

Q: COc1cc([C@@H](C)C(=O)N2CC[C@@]3(CCc4cc(-c5ccc(OC(F)F)nc5)c(C)nc4N3)C2)c(F)cn1 [Example 159, (2R)-1-{(2S)-6-[6-(difluoromethoxy)pyridin-3-yl]-7-methyl-3,4-dihydro-1H-spiro[1,8-naphthyridine-2,3′-pyrrolidin]-1′-yl}-2-(5-fluoro-2-methoxypyridin-4-yl)propan-1-one] was tested. Which Ki (read-out: Ki (nM) geometric) did it give?
A: The Ki was 18 nM.

Q: Which Ki (read-out: Ki (nM) geometric) does the source give for COc1cc([C@@H](C)C(=O)N2CC[C@@]3(CCc4cc(-c5cccc(-c6cnco6)c5)c(C)nc4N3)C2)c(F)cn1 [Example 173, (2R)-2-(5-fluoro-2-methoxypyridin-4-yl)-1-{(2S)-7-methyl-6-[3-(1,3-oxazol-5-yl)phenyl]-3,4-dihydro-1H-spiro[1,8-naphthyridine-2,3′-pyrrolidin]-1′-yl}propan-1-one] here?
A: Its Ki is 85 nM.

Q: Which Ki [1] does the source give for COc1cc([C@@H](C)C(=O)N2CC[C@@]3(CCc4cc(-c5nnn(C)n5)c(C)nc4N3)C2)c(F)cn1 [Example 13, (2R)-2-(5-fluoro-2-methoxypyridin-4-yl)-1-[(2S)-7-methyl-6-(2-methyl-2H-tetrazol-5-yl)-3,4-dihydro-1H-spiro[1,8-naphthyridine-2,3′-pyrrolidin]-1′-yl]propan-1-one] here?
A: Its Ki is 0.6 nM.

Q: How did the Ki (read-out: Ki (nM) geometric) turn out when COc1cc([C@@H](C)C(=O)N2CC[C@@]3(CCc4cc(-c5cc6onc(C)c6cc5C)c(C)nc4N3)C2)c(F)cn1 [Example 160, (2R)-1-[(2S)-6-(3,5-dimethyl-1,2-benzoxazol-6-yl)-7-methyl-3,4-dihydro-1H-spiro[1,8-naphthyridine-2,3′-pyrrolidin]-1′-yl]-2-(5-fluoro-2-methoxypyridin-4-yl)propan-1-one] was run?
A: The Ki was 200 nM.

Q: Which Ki [1] does the source give for COc1cc([C@@H](C)C(=O)N2CC[C@@]3(CCc4cc(-c5ncc(Br)cn5)c(C)nc4N3)C2)c(F)cn1 [Example 22, (2R)-1-[(2S)-6-(5-bromopyrimidin-2-yl)-7-methyl-3,4-dihydro-1H-spiro[1,8-naphthyridine-2,3′-pyrrolidin]-1′-yl]-2-(5-fluoro-2-methoxypyridin-4-yl)propan-1-one] here?
A: The Ki was 2 nM.

Q: How did the Ki (read-out: Ki (nM) geometric) turn out when COc1cc([C@@H](C)C(=O)N2CC[C@@]3(CCc4cc(-c5ccc(C(F)F)cn5)c(C)nc4N3)C2)c(F)cn1 [Example 179, (2R)-1-{(2S)-6-[5-(difluoromethyl)pyridin-2-yl]-7-methyl-3,4-dihydro-1H-spiro[1,8-naphthyridine-2,3′-pyrrolidin]-1′-yl}-2-(5-fluoro-2-methoxypyridin-4-yl)propan-1-one] was run?
A: Its Ki is 21 nM.

Q: With Cc1nc2c(cc1-c1nnn(C)n1)CC[C@@]1(CCN(C(=O)Cc3ccc(C(F)(F)F)cc3)C1)N2 (single isomer, unassigned) [Example 65, 1-[7-methyl-6-(2-methyl-2H-tetrazol-5-yl)-3,4-dihydro-1H-spiro[1,8-naphthyridine-2,3′-pyrrolidin]-1′-yl]-2-[4-(trifluoromethyl)phenyl]ethan-1-one] as the compound, how does the Ki [1] read?
A: Its Ki is 1.7 nM.

Q: Which Ki (read-out: Ki (nM) geometric) does the source give for COc1cc([C@@H](C)C(=O)N2CC[C@@]3(CCc4cc(-c5nc(OC)n(C)n5)c(C)nc4N3)C2)c(F)cn1 (single isomer, unassigned) [Example 112] here?
A: The Ki was 0.78 nM.

Q: Which Ki (read-out: Ki (nM) geometric) does the source give for COc1cc(C(C)(F)C(=O)N2CC[C@@]3(CCc4cc(-c5ncccn5)c(C)nc4N3)C2)c(F)cn1 (single isomer, unassigned) [Example 148] here?
A: Its Ki is 12 nM.

Q: How did the Ki (read-out: Ki (nM) geometric) turn out when COc1cc([C@@H](C)C(=O)N2CC[C@@]3(CCc4cc(-c5cnc(C)nc5)c(C)nc4N3)C2)c(F)cn1 [Example 151, (2R)-2-(5-fluoro-2-methoxypyridin-4-yl)-1-[(2S)-7-methyl-6-(2-methylpyrimidin-5-yl)-3,4-dihydro-1H-spiro[1,8-naphthyridine-2,3′-pyrrolidin]-1′-yl]propan-1-one] was run?
A: The Ki was 23 nM.

Q: Which Ki (read-out: Ki (nM) geometric) does the source give for COc1cc([C@@H](C)C(=O)N2CC[C@@]3(CCc4cc(-c5nc(C(F)(F)F)cs5)c(C)nc4N3)C2)c(F)cn1 [Example 182, (2R)-2-(5-fluoro-2-methoxypyridin-4-yl)-1-{(2S)-7-methyl-6-[4-(trifluoromethyl)-1,3-thiazol-2-yl]-3,4-dihydro-1H-spiro[1,8-naphthyridine-2,3′-pyrrolidin]-1′-yl}propan-1-one] here?
A: Its Ki is 12 nM.

Q: Which Ki (read-out: Ki (nM) geometric) does the source give for COc1cc([C@@H](C)C(=O)N2CC[C@@]3(CCc4cc(-c5nc(C(F)F)n(C)n5)c(C)nc4N3)C2)nc(C)n1 (single isomer, unassigned) [Example 123] here?
A: The Ki was 0.22 nM.

Q: With COc1cc([C@@H](C)C(=O)N2CC[C@@]3(CCc4cc(-c5cccc(OC(F)F)n5)c(C)nc4N3)C2)c(F)cn1 [Example 198, (2R)-1-{(2S)-6-[6-(difluoromethoxy)pyridin-2-yl]-7-methyl-3,4-dihydro-1H-spiro[1,8-naphthyridine-2,3′-pyrrolidin]-1′-yl}-2-(5-fluoro-2-methoxypyridin-4-yl)propan-1-one] as the compound, how does the Ki (read-out: Ki (nM) geometric) read?
A: The Ki was 2.5 nM.

Q: Which Ki (read-out: Ki (nM) geometric) does the source give for Cc1nc2c(cc1-c1nc(C(F)F)n(C)n1)CC[C@@]1(CCN(C(=O)Cc3ccc(F)c(F)c3)C1)N2 [Example 121, 1-{(2S)-6-[5-(difluoromethyl)-1-methyl-1H-1,2,4-triazol-3-yl]-7-methyl-3,4-dihydro-1H-spiro[1,8-naphthyridine-2,3′-pyrrolidin]-1′-yl}-2-(3,4-difluorophenyl)ethan-1-one] here?
A: The Ki was 0.49 nM.
